Test results from patent US12545669B2, “Cycloalkyl and heterocycloalkyl benzisoxazole sulfonamide derivatives” (Pfizer Inc., priority 2019, dated 2026).
pIC50, pKi: −log10 of the molar value. Several values for one entry are separate records, joined by “and”; a condition that tells them apart may be missing. Equal entries are not always repeated. Where two headings read alike, the source gives them in different places.

Biological target: KAT6A (Homo sapiens (Human), UniProt Q92794)
Assay: KAT assay protocol (SAMDI mass spectrometry), KAT6A
Assay type: biochemical
Conditions: for pIC50: 1 μM AcCoA; for pKi: 10 μM AcCoA, Morrison equation; for inhibition at 1 µM: 1 μM compound
Procedure: Biological Assay Section 1 KAT Assay Protocol:
A. Compound Preparation • 1. Prepare 10 mM stock solutions in 100% DMSO from solid material • 2. Serial dilute 10 mM, 1 mM or 0.1 mM compound stocks 3-fold in 100% DMSO for 11-point dose response
B. Reagent Preparation • 1. Prepare 1× assay buffer containing 10 mM Tris HCL pH 8.0, 2.5 mM NaCl, 0.5 mM EDTA, 0.005% BSG and 0.02% Tween-20 • 2. Dilute Histone peptide (CPC Scientific) and AcCoA (Sigma) together in assay buffer to 2×. • 3. Dilute KAT enzyme in assay buffer to 2×.
C. Enzyme Reaction • 1. Final reaction conditions for each KAT assay in a 20 ul assay reaction volume: • i. […] Add 0.5 ul of diluted compound to the assay plate (384-well V-bottom polypropylene plates) or 0.5 ul of DMSO for control wells. • 3. Add 10 ul of 2× Histone peptide/2× AcCoA mix to the assay plate. • 4. Add 10 ul of 2× enzyme to the assay plate. • 5. Stop the reaction after the indicated time with the addition of 2 ul of 5% formic acid • 6. Each reaction was analyzed using self-assembled monolayer desorption/ionization time-of-flight mass spectrometry (Mrksich, Milan (2008) Mass Spectrometry of Self-Assembled Monolayers: A New Tool for Molecular Surface Science ACS Nano 2008 2 (1), 7-18; SAMDI Tech, Inc. (Chicago, IL)). • 7. Area under the curve (AUC) for both substrate and product peaks was determined for KAT6A at M.W. 2723 [Substrate+H]^+ and 2765 [Product+H]^+ with a +/−1 Da tolerance, respectively. • 8. Percent conversion to product was calculated by: AUCProduct/(AUCSubstrate+AUCProduct).
D. Data Analysis • 1. IC50 values were determined by fitting the % conversion at each inhibitor concentration to the 4-parameter IC50 equation using Pfizer proprietary curve fitting software. • 2. Ki values were determined by fitting the % conversion at each inhibitor concentration to the Morrison equation for tightbinding competitive inhibitors using Pfizer proprietary curve fitting software. Materials
KAT enzymes were expressed using a baculovirus expression system and purified at Pfizer, La Jolla. Histone H3 (1-21) peptide ([…], SEQ ID NO:3) was purchased from CPC Scientific (Sunnyvale, CA). Acetyl coenzyme A was purchased from Sigma-Aldrich (St. Louis, MO). All other biochemical reagents were purchased from Sigma-Aldrich or ThermoFisher Scientific (Waltham, MA).
[…] 10 ul of 2× Histone peptide/AcCoA mix was added to a 384-well V-bottom polypropylene assay plate containing 0.5 ul of serially diluted test compound in 100% dimethyl sulfoxide (DMSO). To start the reaction, 10 ul of 2× enzyme solution was added to the assay plate. KAT assays were terminated after 30-60 minutes with the addition of 2 ul of 5% formic acid. KAT6A used histone H3 (1-21) peptide. The final enzyme concentration for KAT6A was 15 nM. Each reaction was analyzed using self-assembled monolayer desorption/ionization time-of-flight mass spectrometry (Mrksich, Milan (2008) Mass Spectrometry of Self-Assembled Monolayers: A New Tool for Molecular Surface Science ACS Nano 2008 2 (1), 7-18; SAMDI Tech, Inc. (Chicago, IL)).
Area under the curve (AUC) for both substrate and product peaks was determined for KAT6A at M.W. 2723 [Substrate+H]^+ and 2765 [Product+H]^+ with a +/−1 Da tolerance, respectively. Percent conversion to product was calculated by: AUCProduct/(AUCSubstrate+AUCProduct). IC50 values were determined by fitting the % conversion at each inhibitor concentration to the 4-parameter IC50 equation using Pfizer proprietary curve fitting software. Ki values were determined by fitting the % conversion at each inhibitor concentration to the Morrison equation for tightbinding competitive inhibitors using Pfizer proprietary curve fitting software.

Sequence of KAT6A (Q92794 whole entry): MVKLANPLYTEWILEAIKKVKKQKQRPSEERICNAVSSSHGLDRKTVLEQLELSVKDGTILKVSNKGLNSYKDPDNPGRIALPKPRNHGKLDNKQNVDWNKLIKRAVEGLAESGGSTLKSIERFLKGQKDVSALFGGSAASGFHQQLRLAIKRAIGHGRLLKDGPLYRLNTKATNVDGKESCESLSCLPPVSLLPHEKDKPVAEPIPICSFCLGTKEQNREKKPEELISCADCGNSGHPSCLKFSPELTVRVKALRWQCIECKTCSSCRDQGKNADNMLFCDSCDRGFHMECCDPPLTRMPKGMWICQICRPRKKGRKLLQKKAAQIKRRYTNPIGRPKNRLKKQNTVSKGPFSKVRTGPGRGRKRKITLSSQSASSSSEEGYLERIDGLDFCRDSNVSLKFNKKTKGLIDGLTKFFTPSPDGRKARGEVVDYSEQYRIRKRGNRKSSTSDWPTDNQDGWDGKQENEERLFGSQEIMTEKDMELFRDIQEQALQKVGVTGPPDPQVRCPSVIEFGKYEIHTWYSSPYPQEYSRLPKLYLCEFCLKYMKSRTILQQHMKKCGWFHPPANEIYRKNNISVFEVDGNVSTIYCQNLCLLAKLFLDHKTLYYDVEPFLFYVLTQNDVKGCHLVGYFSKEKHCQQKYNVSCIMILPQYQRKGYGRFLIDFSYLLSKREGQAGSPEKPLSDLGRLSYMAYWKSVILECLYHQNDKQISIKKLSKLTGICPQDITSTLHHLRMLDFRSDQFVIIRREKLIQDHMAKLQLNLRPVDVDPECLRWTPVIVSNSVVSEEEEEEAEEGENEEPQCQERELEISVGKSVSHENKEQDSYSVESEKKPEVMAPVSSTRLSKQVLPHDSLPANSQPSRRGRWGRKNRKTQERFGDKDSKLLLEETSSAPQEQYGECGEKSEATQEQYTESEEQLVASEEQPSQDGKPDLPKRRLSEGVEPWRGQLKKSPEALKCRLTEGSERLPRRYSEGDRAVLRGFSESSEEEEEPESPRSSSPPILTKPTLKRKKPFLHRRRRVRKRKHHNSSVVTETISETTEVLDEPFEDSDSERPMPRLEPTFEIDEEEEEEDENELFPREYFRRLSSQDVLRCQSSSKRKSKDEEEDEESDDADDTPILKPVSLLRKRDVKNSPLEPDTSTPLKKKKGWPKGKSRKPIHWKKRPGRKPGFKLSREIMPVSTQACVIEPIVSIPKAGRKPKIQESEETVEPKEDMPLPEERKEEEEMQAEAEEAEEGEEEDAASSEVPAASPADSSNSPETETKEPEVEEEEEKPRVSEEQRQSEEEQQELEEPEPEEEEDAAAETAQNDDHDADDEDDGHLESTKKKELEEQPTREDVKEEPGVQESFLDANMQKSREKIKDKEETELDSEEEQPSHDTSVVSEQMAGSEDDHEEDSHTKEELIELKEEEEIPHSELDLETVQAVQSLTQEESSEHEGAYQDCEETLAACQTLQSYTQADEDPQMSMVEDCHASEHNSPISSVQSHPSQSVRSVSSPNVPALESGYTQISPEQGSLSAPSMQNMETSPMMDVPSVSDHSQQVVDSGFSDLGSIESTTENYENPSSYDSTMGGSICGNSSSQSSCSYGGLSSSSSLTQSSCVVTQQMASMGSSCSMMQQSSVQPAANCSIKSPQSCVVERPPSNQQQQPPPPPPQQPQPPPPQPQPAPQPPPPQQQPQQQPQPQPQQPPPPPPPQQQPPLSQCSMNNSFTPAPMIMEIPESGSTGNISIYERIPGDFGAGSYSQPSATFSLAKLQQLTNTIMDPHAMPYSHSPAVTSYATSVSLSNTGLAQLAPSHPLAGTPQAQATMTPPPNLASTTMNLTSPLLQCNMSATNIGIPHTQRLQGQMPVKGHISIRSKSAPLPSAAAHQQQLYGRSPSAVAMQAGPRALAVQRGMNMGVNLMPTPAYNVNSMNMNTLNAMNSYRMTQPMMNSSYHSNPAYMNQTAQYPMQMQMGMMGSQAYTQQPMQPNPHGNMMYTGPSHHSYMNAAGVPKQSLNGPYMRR

| Compound | inhibition at 1 µM [%] | further results |
| --- | --- | --- |
| COc1cc(Cn2cccn2)cc2onc(NS(=O)(=O)N(C)C3CCCCC3)c12 [Example 132] |  | pIC50 (KAT6A IC50 at 1 μM AcCoA): 8.05; pKi (KAT6A Ki at 10 μM AcCoA): 8.40 |
| COc1cc(Cn2cccn2)cc2onc(NS(=O)(=O)C3CCCOC3)c12 (stereo not drawn) [Example 87] | 73 | pKi (KAT6A Ki at 10 μM AcCoA): 7.00 |
| COc1cc(Cn2cccn2)cc2onc(NS(=O)(=O)CCC3CCC3)c12 [Example 29] | 103 | pKi (KAT6A Ki at 10 μM AcCoA): 7.88 |
| COc1cc(Cn2cccn2)cc2onc(NS(=O)(=O)CC3C[C@@H]4[C@H](C3)C4(F)F)c12 (stereo partly drawn) [Example 64] | 92 | pKi (KAT6A Ki at 10 μM AcCoA): 7.55 |
| COc1cc(Cn2cccn2)cc2onc(NS(=O)(=O)[C@H]3C[C@H]4CC[C@H]3C4)c12 [Example 25] | 87 | pKi (KAT6A Ki at 10 μM AcCoA): 7.78 |
| COc1cc(Cn2cccn2)cc2onc(NS(=O)(=O)[C@H]3C[C@@H]3c3ccc(F)cc3)c12 [Example 27] |  | pKi (KAT6A Ki at 10 μM AcCoA): 7.86 |
| COc1cc(Cn2cccn2)cc2onc(NS(=O)(=O)C3CCC(=O)CC3)c12 [Example 80] | 60 |  |
| COc1cc(Cn2cccn2)cc2onc(NS(=O)(=O)C3CC(C)(C)C3)c12 [Example 84] | 62 |  |
| COc1cc(Cn2cccn2)cc2onc(NS(=O)(=O)CC3CCCC3(F)F)c12 (stereo not drawn) [Example 77] |  | pKi (KAT6A Ki at 10 μM AcCoA): 7.81 |
| COc1cc(Cn2cccn2)cc2onc(NS(=O)(=O)CC(C)C)c12 [Example 128] |  | pIC50 (read-out: KAT6A IC50 at 1 μM AcCoA): 6.89 |
| COc1cc(Cn2cccn2)cc2onc(NS(=O)(=O)CCC3CCCO3)c12 (stereo not drawn) [Example 102] | 70 | pKi (KAT6A Ki at 10 μM AcCoA): 6.94 |
| COc1cc(Cn2cccn2)cc2onc(NS(=O)(=O)CC3CCCOC3)c12 (stereo not drawn) [Example 4] |  | pIC50 (KAT6A IC50 at 1 μM AcCoA): 6.46 |
| COc1cc(Cn2cccn2)cc2onc(NS(=O)(=O)CC3CCCCO3)c12 (stereo not drawn) [Example 101] | 65 |  |
| COc1cc(Cn2cccn2)cc2onc(NS(=O)(=O)[C@H]3C[C@H]3c3ccccc3)c12 [Example 28] |  | pKi (read-out: KAT6A Ki at 10 μM AcCoA): 7.85 |
| COc1cc(Cn2cccn2)cc2onc(NS(=O)(=O)C3CCC(C)C3)c12 (stereo not drawn) [Example 21] | 84 | pKi (KAT6A Ki at 10 μM AcCoA): 7.46 |
| COc1cc(Cn2cccn2)cc2onc(NS(=O)(=O)CCN3CCOCC3)c12 [Example 130] |  | pIC50 (KAT6A IC50 at 1 μM AcCoA): 6.73 |
| COc1cc(Cn2cccn2)cc2onc(NS(=O)(=O)CC3CC4CCC3C4)c12 (stereo not drawn) [Example 30] | 98 | pKi (KAT6A Ki at 10 μM AcCoA): 8.14 |
| COc1cc(Cn2cccn2)cc2onc(NS(=O)(=O)C3CCOC3=O)c12 (stereo not drawn) [Example 99] | 83 |  |
| COc1cc(Cn2cccn2)cc2onc(NS(=O)(=O)CC3CCC(F)(F)CC3)c12 [Example 10] | 48 | pKi (KAT6A Ki at 10 μM AcCoA): 7.05 |
| CC[C@@H]1C[C@@H]1S(=O)(=O)Nc1noc2cc(Cn3cccn3)cc(OC)c12 [Example 26] | 71 |  |
| COc1cc(Cn2cccn2)cc2onc(NS(=O)(=O)CC3CCCO3)c12 (stereo not drawn) [Example 6] |  | pIC50 (KAT6A IC50 at 1 μM AcCoA): 6.43 |
| COc1cc(Cn2cccn2)cc2onc(NS(=O)(=O)C3COC(C)(C)C3)c12 (stereo not drawn) [Example 90] | 83 | pKi (KAT6A Ki at 10 μM AcCoA): 7.18 and 7.24 |
| COc1cc(Cn2cccn2)cc2onc(NS(=O)(=O)C[C@H]3C[C@H](C)C3)c12 [Example 134] |  | pIC50 (KAT6A IC50 at 1 μM AcCoA): 7.40 |
| COc1cc(Cn2cccn2)cc2onc(NS(=O)(=O)C3CC(C)C3)c12 (stereo not drawn) [Example 73] | 96 |  |
| COc1cc(Cn2cccn2)cc2onc(NS(=O)(=O)C3CCOC(C)C3)c12 (stereo not drawn) [Example 89] | 84 | pKi (KAT6A Ki at 10 μM AcCoA): 7.06 |
| COc1cc(Cn2cccn2)cc2onc(NS(=O)(=O)CC3CCCCO3)c12 (single isomer, unassigned; (+)) [Example 1, (+)-N-{4-methoxy-6-[(1H-pyrazol-1-yl)methyl]-1,2-benzoxazol-3-yl}-1-(oxan-2-yl)methanesulfonamide] | 88 | pIC50 (KAT6A IC50 at 1 μM AcCoA): 6.93 |
| COc1cc(Cn2cccn2)cc2onc(NS(=O)(=O)CC3CC(C)(C)OC3(C)C)c12 (stereo not drawn) [Example 86] | 77 | pKi (KAT6A Ki at 10 μM AcCoA): 6.97 |
| COc1cc(Cn2cccn2)cc2onc(NS(=O)(=O)C[C@H]3C[C@@H](C)C3)c12 [Example 133] |  | pIC50 (KAT6A IC50 at 1 μM AcCoA): 7.40 |
| COc1cc(Cn2cccn2)cc2onc(NS(=O)(=O)CCC3CC3(F)F)c12 (stereo not drawn) [Example 78] | 77 | pKi (KAT6A Ki at 10 μM AcCoA): 7.34 |

Now from value to compound, other results behind:

| inhibition at 1 µM [%] | Compound | further results |
| --- | --- | --- |
| 68 | COCC1(S(=O)(=O)Nc2noc3cc(Cn4cccn4)cc(OC)c23)CC1 [Example 47] |  |
| 69 | COc1cc(Cn2cccn2)cc2onc(NS(=O)(=O)CC3CCC(C)O3)c12 (stereo not drawn) [Example 100] |  |
| 72 | COc1cc(Cn2cccn2)cc2onc(NS(=O)(=O)CC3(OC)CCCC3)c12 [Example 71] |  |
| 59 | CCOC1(CS(=O)(=O)Nc2noc3cc(Cn4cccn4)cc(OC)c23)CCOCC1 [Example 93] |  |
| 108 | COc1cc(Cn2cccn2)cc2onc(NS(=O)(=O)CCC3CC4CCC3C4)c12 (stereo not drawn) [Example 45] |  |
| 85 | COc1cc(Cn2cccn2)cc2onc(NS(=O)(=O)[C@H]3CCCC[C@H]3OC)c12 [Example 83] |  |
| 75 | COc1cc(Cn2cccn2)cc2onc(NS(=O)(=O)CC3CCOC(C)C3)c12 (stereo not drawn) [Example 103] |  |
| 64 | COCC1(CS(=O)(=O)Nc2noc3cc(Cn4cccn4)cc(OC)c23)CCC1 [Example 55] |  |
| 78 | COc1cc(Cn2cccn2)cc2onc(NS(=O)(=O)CC3CC(OC)C3)c12 (stereo not drawn) [Example 69] |  |
| 48 | COc1cc(Cn2cccn2)cc2onc(NS(=O)(=O)CCCC3CCOC3)c12 (stereo not drawn) [Example 106] |  |
| 103 | COc1cc(Cn2cccn2)cc2onc(NS(=O)(=O)CC(OC)C3CCCCC3)c12 (stereo not drawn) [Example 46] |  |
| 48 | COc1cc(Cn2cccn2)cc2onc(NS(=O)(=O)C3CCCCCC3)c12 [Example 59] |  |
| 40 | COc1cc(Cn2cccn2)cc2onc(NS(=O)(=O)CC3CCN(C(C)=O)CC3)c12 [Example 92] |  |
| 58 | COc1cc(Cn2cccn2)cc2onc(NS(=O)(=O)CC3CN(C)CCO3)c12 (stereo not drawn) [Example 119] |  |
| 92 | COc1cc(Cn2cccn2)cc2onc(NS(=O)(=O)CC3CC4(CCC4)C3)c12 [Example 38] |  |
| 75 | COc1cc(Cn2cccn2)cc2onc(NS(=O)(=O)CC3CCC4(CCC4)O3)c12 (stereo not drawn) [Example 121] |  |
| 40 | COc1cc(Cn2cccn2)cc2onc(NS(=O)(=O)CC3(C#N)CC3)c12 [Example 35] |  |
| 104 | COc1cc(Cn2cccn2)cc2onc(NS(=O)(=O)CC34CCC(CC3)C4)c12 [Example 67] |  |
| 35 | COc1cc(Cn2cccn2)cc2onc(NS(=O)(=O)CC3CCCC4(CCC4)O3)c12 (stereo not drawn) [Example 120] |  |
| 77 | COc1cc(Cn2cccn2)cc2onc(NS(=O)(=O)CC3CCC(F)CC3)c12 (stereo not drawn) [Example 8] |  |
| 106 | COc1cc(Cn2cccn2)cc2onc(NS(=O)(=O)CC3CCC3(F)F)c12 (stereo not drawn) [Example 79] |  |
| 65 | COc1cc(Cn2cccn2)cc2onc(NS(=O)(=O)C3CC4(CCC4)C3)c12 [Example 33] |  |
| 16 | COc1cc(Cn2cccn2)cc2onc(NS(=O)(=O)CCN3CCCC3)c12 [Example 129] |  |
| 101 | COc1cc(Cn2cccn2)cc2onc(NS(=O)(=O)CC34CCCN(CC3)C4)c12 (stereo not drawn) [Example 105] |  |
| 41 | COc1cc(Cn2cccn2)cc2onc(NS(=O)(=O)C3(C)CCC3)c12 [Example 81] |  |
| 80 | COc1cc(Cn2cccn2)cc2onc(NS(=O)(=O)CCCC3CCOCC3)c12 [Example 104] |  |
